Article PMC8634879, “Design, Synthesis, and Biological Evaluation of Pyrano[2,3-c]-pyrazole–Based RalA Inhibitors Against Hepatocellular Carcinoma” (Frontiers in Chemistry, 2021)
Read-outs that look alike come from different tables or passages of the source.

Tests used:
Hep3B cells = assay: Cell proliferation assay (MTT), Hep3B; format: cell-based; conditions: Homo sapiens, average of at least three independent replicates ± SD, read-out: Anti-proliferative activities (IC50, μM) Hep3B
Method: (§1) The antibodies recognizing LC3, p62/SQSTM1, RalA, RalB, and GAPDH were purchased from Proteintech (Wuhan, China). HCC cell lines, including HepG2, Hep3B, Huh-7, and SMMC-7721, were obtained from the Chinese Center for Type Culture Collection (Wuhan, China) and cultured in DMEM (Dulbecco’s modified Eagle’s medium) with 10% FBS (fetal bovine serum) and streptomycin. Cytotoxicity assays were performed by using the MTT method as previously described.
(§2) The in vitro RalA/B bioactivity assays were performed following methods outlined in previous reports. ([Yan et al., 2016]; [Zhang et al., 2018]; [Walsh et al., 2019]; [Bum-Erdene et al., 2020]). In brief, the lysates of the test compound or vehicle-treated cells were cleared using cold centrifugation, and supernatants were collected. An RalBP1 solution was added to 96-well plates and incubated for 1–2 h, and then the plates were washed thrice using ELISA buffer. Next, cellular lysates were added, and samples were incubated overnight at 4°C. Then, ice-cold mouse anti-FLAG antibody was added, and samples were incubated for one more hour. After subsequent washing with ELISA buffer thrice, the HRP-conjugated anti-mouse antibody was added, and samples were incubated for another hour. Then, the HRP substrate was added. Antigen–antibody reactions were quenched by the addition of sulfuric acid (2 mol/L). Remaining RalA/B was detected by the OD450 values which were collected by using a plate reader. Cell proliferation assays, colony formation assays, apoptosis assays, GST pulldown, and Western blotting were used following methods outlined in our previous reports. ([Zhou et al., 2015]; [Zhang et al., 2016]; [Yang et al., 2017]; [He et al., 2019]). Autophagy levels and protein immunoblotting were used following the methods mentioned in our previous reports ([Pan et al., 2018]; [Wang et al., 2018]; [Hao et al., 2019]; [Wang et al., 2019]; [Peng et al., 2020]). Detailed experimental procedures are described in supporting materials.

SMMC-7721 cells = assay: Cell proliferation assay (MTT), SMMC-7721; format: cell-based; conditions: Homo sapiens, average of at least three independent replicates ± SD, read-out: Anti-proliferative activities (IC50, μM) SMMC-7721
Method: as §1, §2

Huh-7 cells = assay: Cell proliferation assay (MTT), Huh-7; format: cell-based; conditions: Homo sapiens
Method: as §1, §2

HepG2 cells = assay: Cell proliferation assay (MTT), HepG2; format: cell-based; conditions: Homo sapiens
Method: as §1, §2

RalA = biological target: T1, RalA (Homo sapiens, UniProt P11233); assay: ELISA-based RalA activity assay (RalBP1-coated plates, lysates of compound-treated cells); format: biochemical; conditions: for remaining activity at 1 µM: 1 μM compound, % control = activity remained; for IC50: enzymatic inhibition, average of at least three independent replicates ± SD, read-out: Kinase activities (IC50, μM) RalA
T1 construct: expressed in transfected cells; host or cells: HepG2 (from b6; the methods paragraph names no cell line)
T1 sequence (P11233 1-203 limits assumed): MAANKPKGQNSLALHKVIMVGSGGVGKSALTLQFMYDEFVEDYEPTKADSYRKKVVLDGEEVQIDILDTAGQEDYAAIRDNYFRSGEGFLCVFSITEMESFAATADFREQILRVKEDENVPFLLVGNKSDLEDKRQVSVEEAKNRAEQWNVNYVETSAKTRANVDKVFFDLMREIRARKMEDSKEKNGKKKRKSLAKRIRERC
Method: as §2

RalB = biological target: T2, RalB (Homo sapiens, UniProt P11234); assay: ELISA-based RalB activity assay (RalBP1-coated plates, lysates of compound-treated cells); format: biochemical; conditions: for remaining activity at 1 µM: 1 μM compound, % control = active (RalBP1-bound) RalB remaining; for IC50: enzymatic inhibition, average of at least three independent replicates ± SD, read-out: Kinase activities (IC50, μM) RalB
T2 construct: expressed in transfected cells; host or cells: HepG2 (from b6; the methods paragraph names no cell line)
T2 sequence (P11234 1-203 limits assumed): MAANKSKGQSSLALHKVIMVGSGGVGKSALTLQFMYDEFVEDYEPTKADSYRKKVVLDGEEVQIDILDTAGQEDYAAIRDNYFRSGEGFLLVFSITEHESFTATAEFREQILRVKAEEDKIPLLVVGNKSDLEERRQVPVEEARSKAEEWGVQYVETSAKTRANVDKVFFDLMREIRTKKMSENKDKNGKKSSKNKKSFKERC
Method: as §2

[1] = Table 1, cell proliferation inhibition, read-out: IC50 (μM) Huh7
[2] = Table 2, average of at least three independent replicates ± SD, read-out: Anti-proliferative activities (IC50, μM) Huh-7
[3] = HepG2, Table 1, cell proliferation inhibition, read-out: IC50 (μM) HepG2
[4] = HepG2, Table 2, average of at least three independent replicates ± SD, read-out: Anti-proliferative activities (IC50, μM) HepG2

Structure (SMILES)	IC50 (Hep3B cells) [µM]	IC50 (SMMC-7721 cells) [µM]	IC50 (Huh-7 cells; [1]) [µM]	IC50 (Huh-7 cells; [2]) [µM]	IC50 (HepG2 cells; [3]) [µM]	IC50 (HepG2 cells; [4]) [µM]	remaining activity at 1 µM (RalA) [%]	IC50 (RalA) [µM]	remaining activity at 1 µM (RalB) [%]	IC50 (RalB) [µM]	melting point [°C]
Cc1ccc(S(=O)(=O)NC2=C(C#N)C(c3cccnc3)c3c(C)nn(-c4ccccc4)c3O2)cc1 (stereo not drawn) [4k, N-(5-cyano-3-methyl-1-phenyl-4-(pyridin-3-yl)-1,4-dihydropyrano[2,3-c]-pyrazol-6-yl)-4-methylbenzenesulfonamide]	> 10	> 10	6.01 ± 0.57	6.01 ± 0.57	5.63 ± 0.58	5.63 ± 0.58	32	0.75 ± 0.09	38	1.09 ± 0.13	
Cc1ccc(S(=O)(=O)NC2=C(C#N)C(c3ccc(C(F)(F)F)cc3)c3c(C)nn(-c4ccccc4)c3O2)cc1 (stereo not drawn) [4n, N-(5-cyano-3-methyl-1-phenyl-4-(4-(trifluoromethyl)phenyl)-1,4-dihydropyrano[2,3-c]-pyrazol-6-yl)-4-methylbenzenesulfonamide]	> 10	> 10	9.58 ± 0.92	9.58 ± 0.92	8.46 ± 0.92	8.46 ± 0.92	46	1.81 ± 0.19	59	4.11 ± 0.45	109.3 to 110.2
Cc1ccc(S(=O)(=O)NC2=C(C#N)C(c3ccc(F)cc3)c3c(C)nn(-c4ccccc4)c3O2)cc1 (stereo not drawn) [4e, N-(5-cyano-4-(4-fluorophenyl)-3-methyl-1-phenyl-1,4-dihydropyrano[2,3-c]-pyrazol-6-yl)-4-methylbenzenesulfonamide]			> 10		> 10		74		76		113 to 113.5
Cc1ccc(-n2nc(C)c3c2OC(NS(=O)(=O)c2ccc(C)cc2)=C(C#N)C3c2ccccc2)cc1 (stereo not drawn) [4ae, N-(5-cyano-3-methyl-4-phenyl-1-(p-tolyl)-1,4-dihydro-pyrano[2,3-c]-pyrazol-6-yl)-4-methylbenzenesulfonamide]			> 10		> 10		79		78		142.5 to 143
Cc1ccc(C2C(C#N)=C(NS(=O)(=O)c3ccc(C)cc3)Oc3c2c(C)nn3-c2ccccc2)cc1 (stereo not drawn) [4b, N-(5-cyano-3-methyl-1-phenyl-4-(p-tolyl)-1,4-dihydropyrano[2,3-c]-pyrazol-6-yl)-4-methylbenzenesulfonamide]			> 10		> 10		75		105		74.7 to 75
Cc1ccc(S(=O)(=O)NC2=C(C#N)C(c3ccco3)c3c(C)nn(-c4ccccc4Cl)c3O2)cc1 (stereo not drawn) [4s, N-(1-(2-chlorophenyl)-5-cyano-4-(furan-2-yl)-3-methyl-1,4-dihydropyrano[2,3-c]-pyrazol-6-yl)-4-methylbenzenesulfonamide]			> 10		9.89 ± 0.81		48		72		62.5 to 63.9
Cc1ccc(S(=O)(=O)NC2=C(C#N)C(c3ccsc3)c3c(C)nn(-c4ccccc4Cl)c3O2)cc1 (stereo not drawn) [4v, N-(1-(2-chlorophenyl)-5-cyano-3-methyl-4-(thiophen-3-yl)-1,4-dihydropyrano[2,3-c]-pyrazol-6-yl)-4-methylbenzenesulfonamide]			> 10		> 10		56		78		67.4 to 68.8
Cc1ccc(S(=O)(=O)NC2=C(C#N)C(c3ccc(Br)cc3F)c3c(C)nn(-c4ccccc4)c3O2)cc1 (stereo not drawn) [4h, N-(4-(4-bromo-2-fluorophenyl)-5-cyano-3-methyl-1-phen-yl-1,4-dihydropyrano[2,3-c]-pyrazol-6-yl)-4-methylbenzenesulfonamide]			> 10		> 10		70		83		73.6 to 77.4
